# Measured values reported in paper PMC3272785 (2011).
# Tests used:
# [1] = molecular target: T1, yeast cytosine deaminase (yCD) (Saccharomyces cerevisiae, UniProt Q12178, E64D); test: radiometric 5FC deamination inhibition assay; format: biochemical
# T1 sequence (Q12178 6-158 E64D): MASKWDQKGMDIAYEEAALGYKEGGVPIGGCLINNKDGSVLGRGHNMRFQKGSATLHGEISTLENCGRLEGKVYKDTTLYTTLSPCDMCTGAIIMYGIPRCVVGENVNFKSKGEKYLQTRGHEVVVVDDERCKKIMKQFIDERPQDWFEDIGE
# [2] = molecular target: T2, yeast cytosine deaminase (yCD) (Saccharomyces cerevisiae, UniProt Q12178); test: fluorometric titration; format: binding
# T2 sequence (Q12178 6-158): T1 sequence (Q12178 6-158 E64D)
smiles,measurement,setting,value
"Oc1ncc(F)cn1 [5FPy, 5-fluoro-1H-pyrimidin-2-one]",Ki,[1],1060 ± 60 µM
same,Kd,[2],0.65 ± 0.08 µM
